Data: PubChem BioAssay AID192 (DTP/NCI, 2004)
Toxic doses and inconclusive results are not listed.

Tested on: BDF1 mice, B16 melanoma ip, median survival T/C
Assay: NCI In Vivo Anticancer Drug Screen. Data for tumor model B16 Melanoma (intraperitoneal) in B6D2F1 (BDF1) mice
Details: endpoint: median survival time, higher = longer survival
Summary of the method: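 Transplantable tumor model; survival or tumor size measured; reported as T/C, treated over vehicle control.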

[1] = dose: 100.0 mg/kg/injection, schedule: Q01DX009 (ip), vehicle: saline sonified
[2] = dose: 50.0 mg/kg/injection, schedule: Q01DX009 (ip), vehicle: saline with Tween-80
[3] = dose: 100.0 mg/kg/injection, schedule: Q01DX009 (ip), vehicle: saline with Tween-80
[4] = dose: 25.0 mg/kg/injection, schedule: Q01DX009 (ip), vehicle: Klucel (hydroxypropylcellulose) (HPC)
[5] = dose: 50.0 mg/kg/injection, schedule: Q01DX009 (ip), vehicle: Klucel (hydroxypropylcellulose) (HPC)
[6] = dose: 100.0 mg/kg/injection, schedule: Q01DX009 (ip), vehicle: Klucel (hydroxypropylcellulose) (HPC)
[7] = dose: 200.0 mg/kg/injection, schedule: Q01DX009 (ip), vehicle: Klucel (hydroxypropylcellulose) (HPC)
[8] = dose: 400.0 mg/kg/injection, schedule: Q01DX009 (ip), vehicle: Klucel (hydroxypropylcellulose) (HPC)
[9] = dose: 12.5 mg/kg/injection, schedule: Q01DX009 (ip), vehicle: Klucel (hydroxypropylcellulose) (HPC)
[10] = dose: 12.5 mg/kg/injection, schedule: Q01DX009 (ip), vehicle: saline with Tween-80
[11] = dose: 25.0 mg/kg/injection, schedule: Q01DX009 (ip), vehicle: saline with Tween-80

O=NN(CCCl)C(=O)NC1CCC(=O)NC1=O (centres undefined)
T/C (dose: 0.09 mg/kg/injection, schedule: Q01DX009 (ip), vehicle: saline): 114 % of control
T/C (dose: 0.18 mg/kg/injection, schedule: Q01DX009 (ip), vehicle: saline): 111 % of control
T/C (dose: 0.35 mg/kg/injection, schedule: Q01DX009 (ip), vehicle: saline): 118 % of control
T/C (dose: 0.7 mg/kg/injection, schedule: Q01DX009 (ip), vehicle: saline): 114 % of control
T/C (dose: 1.0 mg/kg/injection, schedule: Q01DX009 (ip), vehicle: saline with Tween-80): 119 % of control
T/C (dose: 1.1 mg/kg/injection, schedule: Q01DX009 (ip), vehicle: saline): 152 % of control
T/C (dose: 1.6 mg/kg/injection, schedule: Q01DX009 (ip), vehicle: saline): 165 % of control
T/C (dose: 2.0 mg/kg/injection, schedule: Q01DX009 (ip), vehicle: saline with Tween-80): 161 % of control
T/C (dose: 4.0 mg/kg/injection, schedule: Q01DX009 (ip), vehicle: saline with Tween-80): 193 % of control
T/C (dose: 7.5 mg/kg/injection, schedule: Q01DX001 (ip), vehicle: saline + alcohol): 166 % of control
T/C (dose: 8.0 mg/kg/injection, schedule: Q01DX009 (ip), vehicle: saline with Tween-80): 123 % of control
T/C (dose: 15.0 mg/kg/injection, schedule: Q01DX001 (ip), vehicle: saline + alcohol): 245 % of control
T/C (dose: 16.0 mg/kg/injection, schedule: Q01DX009 (ip), vehicle: saline with Tween-80): 93 % of control

CCCCNC(C)(C)COC(=O)/C=C/c1ccc(OCCCC)cc1
T/C (dose: 12.5 mg/kg/injection, schedule: Q01DX009 (ip), vehicle: saline sonified): 97 % of control
T/C (dose: 25.0 mg/kg/injection, schedule: Q01DX009 (ip), vehicle: saline sonified): 97 % of control
T/C (dose: 50.0 mg/kg/injection, schedule: Q01DX009 (ip), vehicle: saline sonified): 104 % of control
T/C [1]: 93 % of control

CN1C2CCC1CC(OC1c3ccccc3CCc3ccccc31)C2 (centres undefined)
T/C (dose: 3.12 mg/kg/injection, schedule: Q01DX009 (ip), vehicle: saline): 90 % of control
T/C (dose: 6.25 mg/kg/injection, schedule: Q01DX009 (ip), vehicle: saline): 97 % of control
T/C (dose: 12.5 mg/kg/injection, schedule: Q01DX009 (ip), vehicle: saline): 97 % of control

O=S(=O)(O)C(Nc1ccccc1)c1ccccc1 (centres undefined)
T/C [1]: 93 % of control
T/C (dose: 200.0 mg/kg/injection, schedule: Q01DX009 (ip), vehicle: saline sonified): 93 % of control
T/C (dose: 400.0 mg/kg/injection, schedule: Q01DX009 (ip), vehicle: saline sonified): 102 % of control

CC1(O)C=CC(=O)C=C1
T/C (dose: 6.25 mg/kg/injection, schedule: Q01DX009 (ip), vehicle: water): 110 % of control
T/C (dose: 12.5 mg/kg/injection, schedule: Q01DX009 (ip), vehicle: water): 116 % of control
T/C (dose: 25.0 mg/kg/injection, schedule: Q01DX009 (ip), vehicle: water): 120 % of control
T/C (dose: 50.0 mg/kg/injection, schedule: Q01DX009 (ip), vehicle: water): 114 % of control

O=C(NP(=O)(N1CC1)N1CC1)c1cc(I)ccc1I
T/C (dose: 1.0 mg/kg/injection, schedule: Q02DX009 (ip), vehicle: saline with Tween-80): 100 % of control
T/C (dose: 1.0 mg/kg/injection, schedule: Q02DX009 (ip), vehicle: saline): 104 % of control
T/C (dose: 2.0 mg/kg/injection, schedule: Q02DX009 (ip), vehicle: saline with Tween-80): 106 % of control
T/C (dose: 2.0 mg/kg/injection, schedule: Q02DX009 (ip), vehicle: saline): 107 % of control
T/C (dose: 4.0 mg/kg/injection, schedule: Q02DX009 (ip), vehicle: saline with Tween-80): 93 % of control
T/C (dose: 4.0 mg/kg/injection, schedule: Q02DX009 (ip), vehicle: saline): 98 % of control
T/C (dose: 8.0 mg/kg/injection, schedule: Q02DX009 (ip), vehicle: saline with Tween-80): 120 % of control
T/C (dose: 8.0 mg/kg/injection, schedule: Q02DX009 (ip), vehicle: saline): 112 % of control
T/C (dose: 16.0 mg/kg/injection, schedule: Q02DX009 (ip), vehicle: saline): 116 % of control
T/C (dose: 32.0 mg/kg/injection, schedule: Q02DX009 (ip), vehicle: saline): 107 % of control
T/C (dose: 64.0 mg/kg/injection, schedule: Q02DX009 (ip), vehicle: saline with Tween-80): 92 % of control
T/C (dose: 64.0 mg/kg/injection, schedule: Q02DX009 (ip), vehicle: saline): 101 % of control

CCNNC(=O)[C@@H]1[C@H](c2cc(OC)c(OC)c(OC)c2)c2cc3c(cc2[C@H](O)[C@H]1CO)OCO3
T/C [2]: 94 % of control
T/C [3]: 86 % of control

Cc1ccc2c(C)c3ccc4ccccc4c3c[n+]2c1
T/C (dose: 10.0 mg/kg/injection, schedule: Q01DX009 (ip), vehicle: saline with Tween-80): 104 % of control
T/C (dose: 20.0 mg/kg/injection, schedule: Q01DX009 (ip), vehicle: saline with Tween-80): 106 % of control
T/C (dose: 40.0 mg/kg/injection, schedule: Q01DX009 (ip), vehicle: saline with Tween-80): 100 % of control

O=C(NC(CSC(c1ccccc1)c1ccccc1)C(=O)O)OCc1ccccc1 (centres undefined)
T/C [4]: 100 % of control
T/C [5]: 100 % of control

C[n+]1ccc(C#N)c2ccccc21
T/C (dose: 3.75 mg/kg/injection, schedule: Q01DX009 (ip), vehicle: saline): 102 % of control
T/C (dose: 7.5 mg/kg/injection, schedule: Q01DX009 (ip), vehicle: saline): 93 % of control

Cc1ccc(NC(=S)N(C)C)cc1Cl
T/C [6]: 100 % of control
T/C (dose: 100.0 mg/kg/injection, schedule: Q04DX003 (ip), vehicle: Klucel (hydroxypropylcellulose) (HPC)): 104 % of control
T/C [7]: 88 % of control
T/C (dose: 200.0 mg/kg/injection, schedule: Q04DX003 (ip), vehicle: Klucel (hydroxypropylcellulose) (HPC)): 90 % of control
T/C [8]: 88 % of control
T/C (dose: 400.0 mg/kg/injection, schedule: Q04DX003 (ip), vehicle: Klucel (hydroxypropylcellulose) (HPC)): 95 % of control

C=CCN1/C(=C/C=C\c2sc3ccccc3[n+]2CC=C)Sc2ccccc21
T/C (dose: 0.06 mg/kg/injection, schedule: Q01DX009 (ip), vehicle: saline with Tween-80): 100 % of control
T/C (dose: 0.13 mg/kg/injection, schedule: Q01DX009 (ip), vehicle: saline with Tween-80): 97 % of control
T/C (dose: 0.25 mg/kg/injection, schedule: Q01DX009 (ip), vehicle: saline with Tween-80): 97 % of control
T/C (dose: 0.5 mg/kg/injection, schedule: Q01DX009 (ip), vehicle: saline with Tween-80): 95 % of control

Cc1ccccc1N1C(=O)CSC1=S
T/C [9]: 90 % of control
T/C [4]: 93 % of control

NC(=S)Nc1cccc2ccccc12
T/C (dose: 6.25 mg/kg/injection, schedule: Q01DX009 (ip), vehicle: saline with Tween-80): 99 % of control
T/C [10]: 95 % of control
T/C [11]: 97 % of control

O=C(O)C(/C=C/c1ccccc1)c1ccccc1 (centres undefined)
T/C [3]: 95 % of control
T/C (dose: 400.0 mg/kg/injection, schedule: Q01DX009 (ip), vehicle: saline with Tween-80): 105 % of control

CC1(C)N=C(N)N=C(N)N1c1cccc(CC(=O)Nc2ccc(S(=O)(=O)F)cc2)c1
T/C [4]: 103 % of control
T/C [5]: 102 % of control
T/C [6]: 109 % of control
T/C (dose: 150.0 mg/kg/injection, schedule: Q01DX009 (ip), vehicle: Klucel (hydroxypropylcellulose) (HPC)): 109 % of control

CC(=O)C1(O)CCCCC1
T/C (dose: 100.0 mg/kg/injection, schedule: Q04DX003 (ip), vehicle: saline): 95 % of control
T/C (dose: 200.0 mg/kg/injection, schedule: Q04DX003 (ip), vehicle: saline): 100 % of control
T/C (dose: 400.0 mg/kg/injection, schedule: Q04DX003 (ip), vehicle: saline): 100 % of control

CC(=O)CC(=O)Nc1cccc(C)c1C
T/C [6]: 94 % of control
T/C [7]: 86 % of control
T/C [8]: 94 % of control

CSCCC(NC(=O)c1ccccc1)C(=O)O (centres undefined)
T/C [9]: 89 % of control
T/C [10]: 104 % of control
T/C [4]: 100 % of control
T/C [11]: 97 % of control
T/C [5]: 88 % of control
T/C [2]: 99 % of control
T/C [6]: 88 % of control

CC(C)(O)C1OCC(C2CCC3(C)C4=CCC5C(C)(C)C(O)CCC5(C)C4CCC23C)CC1O (centres undefined)
T/C (dose: 2.5 mg/kg/injection, schedule: Q01DX009 (ip), vehicle: Klucel (hydroxypropylcellulose) (HPC)): 102 % of control
T/C (dose: 5.0 mg/kg/injection, schedule: Q01DX009 (ip), vehicle: Klucel (hydroxypropylcellulose) (HPC)): 98 % of control
T/C (dose: 10.0 mg/kg/injection, schedule: Q01DX009 (ip), vehicle: Klucel (hydroxypropylcellulose) (HPC)): 89 % of control

CCCCCCCCCCCCCCCC(=O)N(CCCN)C(C)CCCN(CC)CC (centres undefined)
T/C [9]: 105 % of control
T/C [4]: 100 % of control
T/C [5]: 107 % of control
T/C [6]: 101 % of control
